# Assay results: patent US20100234463A1, “Method for Identifying Modulators of Gamma Secretase or Notch” (priority 2005, published 2010)
# Tests used:
# [1] = system: Aβ40; test: Quantification of Aβ40 in cell-conditioned media by ECL; assay type: cell-based, human; settings: 24 hours
# Method: (§1) Human embryonic kidney (HEK) 293 cells stably over-expressing β-amyloid precursor protein (βAPP695) and c-myc-tagged NotchΔE (M1727V) have been previously described (Beher, D. et al., J. Biol Chem. 276: 45394-45402, (2001)). Cells were routinely maintained in Dulbecco's modified Eagle's medium (DMEM) supplemented with 10% (v/v) fetal calf serum (FCS, Invitrogen™, Carlsbad, Calif.), 1 μg/ml puromycin (Sigma-Aldrich, St. Louis, Mo.) to maintain βAPP expression and 100 μg/ml zeocin (Life Technologies, Inc., Rockville, Md.) to select for NotchΔE expression. Cells were passaged on a weekly basis using 1:10 split ratio.
# (§2) On the day of the assay, media was removed and cells washed with phosphate-buffered saline (PBS, Sigma-Aldrich, St. Louis, Mo.), followed by incubation with 1.5 ml Accutase (PAA Laboratories GmbH, Pasching, Austria) at 37° C. for 10 minutes to detach cells. DMEM supplemented with 10% (v/v) FCS was added and the cell suspension centrifuged for 5 minutes at 1120 prm. […] A further 9 ml DMEM supplemented with 0.4% (v/v) FCS was added and cells counted.
# (§3) Cells were plated in poly-d-lysine coated 96-well plates (Becton Dickinson, Fullerton, Calif.) at 10,000 cells/well in DMEM supplemented with 0.4% (v/v) FCS (Invitrogen™, Carlsbad, Calif.). […] Cell conditioned media was removed for quantification of Aβ peptides and the cell monolayer fixed by incubating with 3.7% (v/v) formaldehyde (Sigma-Aldrich, St. Louis, Mo.) in PBS at room temperature for fifteen minutes.
# Aβ peptides secreted into the media were quantified using an electrochemiluminescence (ECL) assay in a 96-well plate format (Sector HTS™ analyzer, Meso Scale Discovery® a division of Meso Scale Diagnostics™, LLC (MSD™), Gaithersburg, Md.). […] Plates were washed with PBS (three times, five minutes each) and media replaced with 150 μl Read buffer S (Meso Scale Discovery®) prior to detecting Aβ40 and Aβ42 using the Sector HTS™ Analyzer. […]
# Mean values for vehicle control and compound C treated cells were calculated. […] Percent control values were calculated using the following formula: […]
# [2] = system: Notch; test: NICD nuclear translocation high content screening assay (ArrayScan); assay type: cell-based, human
# Method: as §1, §2, §3
# Cells were washed with PBS (three times, five minutes each) and incubated with 0.1% Triton-X in PBS for 90 seconds at room temperature. […] After washing with PBS (three times, five minutes each), the plates were sealed and transferred to a Cellomics™ ArrayScan® 4.0 (Cellomics Inc, Pittsburgh, Pa.) for quantification of NICD translocation.
# Automated image capture and quantification of NICD nuclear translocation was performed using a Cellomics™ ArrayScan® 4.0 and the Cytoplasm to Nucleus Translocation BioApplication software (Cellomics, Pittsburgh, Pa.). […]
# [3] = system: γ-secretase; settings: reported; cited from earlier work
# [4] = system: Aβ42; test: Quantification of Aβ42 in cell-conditioned media by ECL; assay type: cell-based, human; settings: 24 hours
# Method: as §1
# as §2, with “cells.” for “cells. DMEM supplemented with 10% (v/v) FCS was added and the cell suspension centrifuged for 5 minutes at 1120 prm.”
# as §3, with “minutes. […]” for “minutes.”
# [5] = system: Aβ42; settings: cited from earlier work
IC50 ([1]; HEK293 βAPP695 NotchΔE cells),IC50 ([4]; HEK293 βAPP695 NotchΔE cells),"IC50 ([2]; NICD nuclear translocation, 24 hours)",Structure (SMILES),effect on Aβ40 levels ([1]; increasing concentrations),"inhibition of NICD nuclear translocation over time ([2]; 10 μM, up to twenty four hours)",potency for inhibition of Aβ40 versus Aβ42 peptides [3],concentrations at which Aβ40 peptide generation was inhibited [1],effect on Aβ42 peptide levels ([4]; increasing concentrations),concentrations with no effect on NICD nuclear translocation ([2]; 24 hours),reported effect on Aβ42 [5]
,,,CC(C)C[C@H](NC(=O)[C@H](Cc1ccccc1)C[C@@H](O)[C@H](Cc1ccccc1)NC(=O)OC(C)(C)C)C(=O)N[C@@H](Cc1ccccc1)C(N)=O [C],declined,Time-dependant inhibition,equivalent potency,,,,
> 1000 µM,9.24 µM,> 1000 µM,C[C@@H](C(=O)O)c1ccc(-c2ccccc2)c(F)c1 [Compound F],,,,≥ 30 µM,selectively reduced,up to 1000 μM,preferentially inhibit Aβ42
